# Reference: patent US20080153850A1, “Adamantyl Derivates as P2x7 Receptor Antagonists” (AstraZeneca AB, priority 2004, published 2008)
# Target: T1, P2X7 receptor (Homo sapiens, UniProt Q99572)
# T1 construct: 200 μl of a suspension of THP-1 cells; endogenous in cells; host or cells: THP-1 cells
# T1 sequence (Q99572 1-595): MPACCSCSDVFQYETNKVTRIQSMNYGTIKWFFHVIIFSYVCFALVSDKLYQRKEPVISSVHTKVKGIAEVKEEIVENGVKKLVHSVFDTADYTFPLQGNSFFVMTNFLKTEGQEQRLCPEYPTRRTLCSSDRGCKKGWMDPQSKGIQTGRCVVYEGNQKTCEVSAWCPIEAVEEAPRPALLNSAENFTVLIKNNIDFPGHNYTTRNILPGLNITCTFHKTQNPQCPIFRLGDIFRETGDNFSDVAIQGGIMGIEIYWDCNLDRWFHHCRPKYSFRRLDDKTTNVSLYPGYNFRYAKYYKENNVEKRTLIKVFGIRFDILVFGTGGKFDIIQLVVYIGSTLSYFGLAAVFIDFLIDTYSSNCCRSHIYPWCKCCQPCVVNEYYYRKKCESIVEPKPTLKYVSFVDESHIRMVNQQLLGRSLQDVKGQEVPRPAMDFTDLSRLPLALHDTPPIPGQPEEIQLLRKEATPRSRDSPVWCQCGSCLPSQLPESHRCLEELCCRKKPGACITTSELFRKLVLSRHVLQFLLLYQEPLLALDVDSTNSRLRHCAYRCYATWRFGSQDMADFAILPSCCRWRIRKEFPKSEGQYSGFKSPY
# Experiment: P2X7 receptor antagonist test: bbATP-induced ethidium bromide fluorescence in THP-1 cells
# Format: cell-based
# Conditions: 10^-5M bbATP agonist, 10^-4M ethidium bromide, 37° C. one hour, negative log of concentration reducing bbATP agonist activity by 50%
# Procedure: Consequently, when the receptor is activated using bbATP in the presence of ethidium bromide (a fluorescent DNA probe), an increase in the fluorescence of intracellular DNA-bound ethidium bromide is observed. The increase in fluorescence can be used as a measure of P2X7 receptor activation and therefore to quantify the effect of a compound on the P2X7 receptor.
# In this manner, each of the title compounds of the Examples was tested for antagonist activity at the P2X7 receptor. […] The plate was covered with a plastics sheet and incubated at 37° C. for one hour. The plate was then read in a Perkin-Elmer fluorescent plate reader, excitation 520 nm, emission 595 nm, slit widths: Ex 15 nm, Em 20 nm. For the purposes of comparison, bbATP (a P2X7 receptor agonist) and pyridoxal 5-phosphate (a P2X7 receptor antagonist) were used separately in the test as controls. From the readings obtained, a pIC50 figure was calculated for each test compound, this figure being the negative logarithm of the concentration of test compound necessary to reduce the bbATP agonist activity by 50%.
row,IC50 [nM],SMILES
1,316,"O=C(O)c1ccc(-c2ccc(Cl)c(C(=O)NCC34CC5CC(CC(C5)C3)C4)c2)cc1 [Example 1, 4′-Chloro-3′-[[(tricyclo[3.3.1.1^3,7]dec-1-ylmethyl)amino]carbonyl]-[1,1′-biphenyl]-4-carboxylic acid]"

# System: not given
# Experiment: not given
# Conditions: not given
row,SMILES,melting point
1,"O=C(O)CCOc1ccccc1-c1ccc(Cl)c(C(=O)NCC23CC4CC(CC(C4)C2)C3)c1 [Example 16, 3-[[4′-Chloro-3′-[[(tricyclo[3.3.1.1^3,7]dec-1-ylmethyl)amino]carbonyl][1,1′-biphenyl]-2-yl]oxy]-propanoic acid]",163 to 164 °C
2,"O=C(NCC12CC3CC(CC(C3)C1)C2)c1cc(-c2ncc(Cl)cc2C(=O)O)ccc1Cl [Example 17, 5-Chloro-2-[4-chloro-3-[[(tricyclo[3.3.1.1^3,7]dec-1-ylmethyl)amino]carbonyl]phenyl]-3-pyridinecarboxylic acid]",165 to 168 °C
3,"C[C@H](Oc1ccccc1-c1ccc(Cl)c(C(=O)NCC23CC4CC(CC(C4)C2)C3)c1)C(=O)O [Example 14, (2S)-2-[[4′-chloro-3′-[[(tricyclo[3.3.1.1^3,7]dec-1-ylmethyl)amino]carbonyl][1,1′-biphenyl]-2-yl]oxy]-propanoic acid]",107 to 110 °C
4,"O=C(O)c1ccnc(-c2ccc(Cl)c(C(=O)NCC34CC5CC(CC(C5)C3)C4)c2)c1 [Example 12, 2-[4-Chloro-3-[[(tricyclo[3.3.1.1^3,7]dec-1-ylmethyl)amino]carbonyl]phenyl]-4-pyridinecarboxylic acid]",284 to 287 °C
5,"Cn1cc(-c2ccc(Cl)c(C(=O)NCC34CC5CC(CC(C5)C3)C4)c2)c(C(=O)O)n1 [Example 31, 4-[4-Chloro-3-[[(tricyclo[3.3.1.1^3,7]dec-1-ylmethyl)amino]carbonyl]phenyl]-1-methyl-1H-pyrazole-3-carboxylic acid]",166 to 175 °C (dec.)

# The remaining lines, values ahead:
row,melting point,SMILES
1,114 to 117 °C,"O=C(NCCC12CC3CC(CC(C3)C1)C2)c1cc(-c2ccccc2C(=O)O)ccc1Cl [Example 49, 4′-Chloro-3′-[[(2-tricyclo[3.3.1.1^3,7]dec-1-ylethyl)amino]carbonyl]-[1,1′-biphenyl]-2-carboxylic acid]"
2,108 to 111 °C,"O=C(NCCC12CC3CC(CC(C3)C1)C2)c1cc(-c2cccnc2C(=O)O)ccc1Cl [Example 50, 3-[4-Chloro-3-[[(2-tricyclo[3.3.1.1^3,7]dec-1-ylethyl)amino]carbonyl]phenyl]-2-pyridinecarboxylic acid]"
3,200 to 202 °C,"O=C(O)Cc1ccccc1-c1ccc(Cl)c(C(=O)NCC23CC4CC(CC(C4)C2)C3)c1 [Example 37, 4′-Chloro-3′-[[(tricyclo[3.3.1.1^3,7]dec-1-ylmethyl)amino]carbonyl]-[1,1′-biphenyl]-2-acetic acid]"
4,60 °C,"Cc1ccc(-c2cccnc2N2CCC(C(=O)O)CC2)cc1C(=O)NCC12CC3CC(CC(C3)C1)C2 [Example 68, 1-[3-[4-Methyl-3-[[(tricyclo[3.3.1.1^3,7]dec-1-ylmethyl)amino]carbonyl]phenyl]-2-pyridinyl]-4-piperidinecarboxylic acid]"
5,145 to 150 °C,"C[C@H](Oc1ccc(-c2ccc(Cl)c(C(=O)NCC34CC5CC(CC(C5)C3)C4)c2)cc1)C(=O)O [Example 43, (2S)-2-[[4′-Chloro-3′-[[(tricyclo[3.3.1.1^3,7]dec-1-ylmethyl)amino]carbonyl][1,1′-biphenyl]-4-yl]oxy]-propanoic acid]"
6,187 to 190 °C (dec.),"Cn1ncc(-c2ccc(Cl)c(C(=O)NCC34CC5CC(CC(C5)C3)C4)c2)c1C(=O)O [Example 32, 4-[4-Chloro-3-[[(tricyclo[3.3.1.1^3,7]dec-1-ylmethyl)amino]carbonyl]phenyl]-1-methyl-1H-pyrazole-5-carboxylic acid]"
7,181 to 183 °C,"Cc1ccc(-c2cccnc2C(=O)O)cc1C(=O)NCC12CC3CC(CC(C3)C1)C2 [Example 55, 3-[4-Methyl-3-[[(tricyclo[3.3.1.1^3,7]dec-1-ylmethyl)amino]carbonyl]phenyl]-2-pyridinecarboxylic acid]"
